The subject of one data set is IMR90 cells. In words: Direct fluorescence labeling of cell surface proteins. To be noted: 6 μm, 3 μm, 1.5 μm, and 0.75 μm as printed; 30 min. The class given is cell-based, human. How it is done:
The inventive compounds and commercial dyes were evaluated in direct fluorescence labeling of cell surface proteins using the following protocol. DyLight 549-NHS, 550 Compound 1-NHS, and Whole Cell Stain Orange (Thermo Fisher Scientific) were reconstituted in DMF and diluted to 6 μM in Dulbecco's PBS (DPBS). A total of four 1:1 serial dilutions of the dyes were prepared in DPBS. Frozen IMR90 cells (human lung embryonic fibroblast) on a plate were thawed for 1 h at 37° C. The cell plates were washed two times with DPBS and incubated with dye dilutions for 30 min at room temperature protected from light. The cell plates were then washed three times with DPBS. The cell plates were incubated with 100 μl/well of 1 μg/ml Hoechst dye in DPBS. The cell plates were sealed and imaged using the Thermo Scientific ArrayScan VTI HCS Reader.
The inventive compounds and commercial dye were evaluated in direct fluorescence labeling of cell surface proteins. DyLight 649-NHS, 650 Compound 1-NHS, and Whole Cell Stain Orange (Thermo Fisher Scientific) were reconstituted in DMF and diluted to 6 μM in Dulbecco's PBS (DPBS). A total of four 1:1 serial dilutions of the dyes were prepared in DPBS. Frozen IMR90 cells (human lung embryonic fibroblast) on a plate were thawed for 1 h at 37° C. […] The cell plates were sealed and imaged using the Thermo Scientific ArrayScan VTI HCS Reader.

A short description of data set [1]: Spectral properties of the dyes compared with commercially available dyes. The settings on record: reactive ester form of the dye. The class given is physicochemical.

In the case of `COCCN1/C(=C/C=C/C2=[N+](CCCCCC(=O)ON3C(=O)CCC3=O)c3ccc(S(=O)(=O)[O-])cc3C2(C)CCCS(=O)(=O)O)C(C)(CCCS(=O)(=O)O)c2cc(S(=O)(=O)O)ccc21` (stereo not shown) [550 Compound 1-NHS], the “Performance in direct fluorescence labeling of cell surface proteins” value with IMR90 cells is reported as “performed equivalently as DyLight 549-NHS”. Moreover, in data set [1], the “Emission (Em)” value was 572 nm, the “Excitation (Ex)” value was found to be 557 nm and the ε is 142,000 M−1cm−1.

(Values after patent publication US10053447B2, “Fluorescent compounds” (Pierce Biotechnology, Inc, priority 2010, dated 2018).)
